{"source": "patent US20030008024A1", "about": "“Therapeutic composition of herbal extracts and the uses thereof” (Advanced Herbal Therapeutics, Inc., priority 2001, published 2003)", "key": {"[1]": {"test_system": "hemolysin antibody formation", "test": "Hemolysin antibody formation in SRBC-immunized normal mice", "format": "in vivo, mice (NIH, ICR, KM)", "conditions": "dosing day 0˜7; for Hymolysin Antibody / inhibition at 20 mg/kg: 0.02 g/kg", "experimental": "Totals of 150 mice (50 NIH mice, 50 ICR mice and 50 KM mice) weighing 18-22 g with equal sex distribution were divided into 10 groups, each of which was immunized with 0.2 ml 5% sheep red blood cells (SRBC) i.p. once. AHT-323 was given from d0 to d6. Seven days after immunization, mice were sacrificed and blood was taken from the eyeball. Assay for hemolysin antibody formation was performed and its inhibition rate was evaluated."}, "[2]": {"test_system": "IL-1", "test": "IL-1 activity in peritoneal macrophages after oral dosing (radio-ELISA)", "format": "in vivo, NIH mice", "conditions": "0.02 g/kg p.o. once daily 10 days", "experimental": "(§1) Totals of 50 NIH mice weighing 18-22g with equal sex distribution were divided into 5 groups and administered p.o. with different doses of AHT-323 or cyclophosphamide once daily for 10 days. 24h after the last dosing, mice were sacrificed and peritoneal macrophage and spleen cells suspension were prepared to measure IL-1 and IL-6 activity, respectively.\nMethod of testing IL-1: IL-1 activity in peritoneal macrophages was measured with radio-ELISA and the result was shown in Table 18."}, "[3]": {"test_system": "plaque forming cells (PFC) and serum IgM of AA mice", "test": "Humoral immunity of AA mice (PFC, IgM)", "format": "in vivo, NIH mice", "conditions": "0.020 g/kg", "experimental": "An experimental model of adjuvant arthritis was established in NIH mice weighing 20±2 g by intradermal injection of 0.05 ml Freund's Complete Adjuvant (FCA) to the planter of hind paw. Three weeks later, the mice were treated with different dose of AHT-323 for 5 days. At the same time, they were sensitized with 0.5 ml 10% SRBC i.p. The mice were sacrificed 5 days later. The spleen cells were prepared and the plaque forming cells (PFC) were measured, the serum was prepared and IgM was determined."}, "[4]": {"test_system": "CD4 and CD8", "test": "CD4 and CD8 content of mouse splenocytes (biotin-labeled ELISA)", "format": "in vivo, ICR mice", "conditions": "0.02 g/kg once daily ten days", "experimental": "(§2) Totals of 50 ICR mice weighing 18˜22 g with equal sex distribution were randomly divided into five groups. The mice were administrated orally with different doses of AHT-323 or positive control drug respectively, once daily for consecutive ten days. 24 hours after the last dosing, the mice were sacrificed and splenocyte suspension was prepared for measurement of CD4 and CD8 content and NK cells activity."}, "[5]": {"test_system": "TNFα", "test": "TNFα content of peritoneal macrophage suspension after oral dosing (ELISA)", "format": "in vivo, ICR mice", "conditions": "0.02 g/kg once daily 10 days", "experimental": "(§3) Total of 50 ICR mice weighing 18˜22 g with equal sex were divided into 5 groups. The mice were administrated orally with different doses of AHT-323 or control (0.5% tragacanth) once daily for 10 days. 24 hours after the last dosing, the peritoneal macrophage suspensions were prepared to measure TNFα content and IL-2 activity.\nAn ELISA assay was performed using anti-TNFα monoclonal antibody. The TNFα concentration was calculated based on the OD value at 450 nm."}, "[6]": {"test_system": "IL-6", "test": "IL-6 activity in splenocytes after oral dosing (ELISA)", "format": "in vivo, NIH mice", "conditions": "0.02 g/kg p.o. once daily 10 days", "experimental": "as §1"}, "[7]": {"test_system": "IL-2", "test": "IL-2 activity after oral dosing (IL-2 dependent CTLL cells)", "format": "in vivo, ICR mice", "conditions": "0.02 g/kg once daily 10 days", "experimental": "as §3\nThe IL-2 activity of macrophage was measured with IL-2 dependent CTLL cells by ELISA."}, "[8]": {"test_system": "splenocyte lymphocytes stimulated by Con A", "test": "Lymphocyte blastogenesis of normal mice stimulated by Con A (3H-TdR)", "format": "in vivo, NIH mice", "conditions": "0.02 g/kg p.o. once daily 10 days", "experimental": "50 NIH mice with equal sex distribution were randomly divided into 5 groups. The mice were treated p.o. with different doses of AHT-323 or positive control drug once daily for 10 days. Twenty four hours after the last dosing, mice were sacrificed. The splenocytes were obtained and Con A (Concanavalin) was used to stimulate lymphocytes for transformation. ^3H-TdR adulteration method was used and the result was shown in table 20."}, "[9]": {"test_system": "DTH of mice induced by DNFB", "test": "Delayed type hypersensitivity of mouse ear induced by DNFB", "format": "in vivo, NIH mice", "experimental": "Totals of 50 NIH mice with equal sex were randomly divided into 5 groups. Each mouse was sensitized with 0.025 ml DNBF (1%) at day 0. Five days later […], 0.01 ml DNFB was pasted as aggression on the right ear. The mice were sacrificed 24 hours later and the weight of left and right ears were measured, the difference of which was used to evaluate reaction intensity of the delayed type hypersensitivity (DTH) of the mice.\nIn this experiment, AHT-323 was given for consecutive six days (0˜5 days) from the day when the mice were first sensitized with DNFB.\nTotals of 60 NIH mice were used. AHT-323 treatments were given at different intervals as the following: from d-2 (2 days before first sensitizing) to Day 0 (first sensitization day), from Day-2 to Day 2 (2 days after first sensitizing), from Day-2 to Day5, and from Day 0 to Day 4, respectively. The swelling rate of mouse ear was determined.\nAnother 50 NIH mice were used to compare AHT-323 with cyclophosphamide or cytoxan (Cy) on the effects on DTH of mice. The mice were treated with either AHT-323 or Cy alone or both at different intervals."}, "[10]": {"test_system": "NK cells", "test": "NK cells activity of mouse splenocytes (colorimetry)", "format": "in vivo, ICR mice", "conditions": "0.02 g/kg once daily ten days", "experimental": "as §2"}, "[11]": {"test_system": "writhing reaction of mice", "test": "Writhing reaction induced by HAC", "format": "in vivo, Kunming mice", "conditions": "0.01 g/kg once daily 3 days; first 20 minutes", "experimental": "A total of 50 Kunming mice weighing 18-22 g with equal sex distribution were randomly divided into 5 groups. The mice were treated p.o. with different doses of AHT-323, tragacanth, or Morphine hydrochloride once daily for 3 days. One hour later, each mouse was treated with 0.2 ml saline containing 0.7% HAC, i.p. The time to first writhing and the number of writhing during the first 20 minutes were evaluated."}, "[12]": {"conditions": "Mus musculus, 0 h, read-out: Inhibition rate (%)"}, "[13]": {"conditions": "Table 11, 0.1×3 g/kg, dosing day 0, 2, 4 each"}}, "note": "Like-named read-outs stand apart in the source and are kept apart here.", "data": [{"smiles": "O=P1(N(CCCl)CCCl)NCCCO1", "note": "(stereo not drawn) [Cy, cyclophosphamide]", "values": [{"measurement": "Hymolysin Antibody", "setting": "[1]; ICR mice", "value": "28 ± 7"}, {"measurement": "Hymolysin Antibody", "setting": "[1]; KM mice", "value": "46 ± 18"}, {"measurement": "inhibition at 20 mg/kg", "setting": "[1]; Mus musculus, 0 h, ICR mice, read-out: Inhibition Rate (%)", "value": 77.4, "unit": "%"}, {"measurement": "inhibition at 20 mg/kg", "setting": "[1]; Mus musculus, 0 h, KM mice, read-out: Inhibition Rate (%)", "value": 81.1, "unit": "%"}, {"measurement": "inhibition at 250 mg/kg", "setting": "[1]; Mus musculus, 0 h, NIH mice, 0.25 g/kg, read-out: Inhibition Rate (%)", "value": 75.4, "unit": "%"}, {"measurement": "Hemolysin Antibody (HC50)", "setting": "[1]; NIH mice, 0.25 g/kg", "value": "33 ± 8"}, {"measurement": "IL-1", "setting": "[2]", "value": "44.5 ± 7.7", "unit": "ng/mL"}, {"measurement": "IgM (Log2)", "setting": "[3]", "value": "6.950 ± 0.597", "unit": "Log2"}, {"measurement": "PFC (OD415)", "setting": "[3]", "value": "0.835 ± 0.015", "unit": "OD415"}, {"measurement": "CD4 (%)", "setting": "[4]", "value": "11.50 ± 2.50", "unit": "%"}, {"measurement": "CD4/CD8", "setting": "[4]", "value": "2.91 ± 0.53"}, {"measurement": "CD8 (%)", "setting": "[4]", "value": "4.10 ± 1.20", "unit": "%"}, {"measurement": "TNFα", "setting": "[5]", "value": "42.2 ± 9.6", "unit": "pg/mL"}, {"measurement": "IL-6", "setting": "[6]", "value": "49.6 ± 6.7", "unit": "IU/ml"}, {"measurement": "IL-2", "setting": "[7]", "value": "10.1 ± 3.0", "unit": "IU/ml"}, {"measurement": "Cpm", "setting": "[8]", "value": "9922 ± 1145", "unit": "Cpm"}, {"measurement": "Stimulate Index", "setting": "[8]", "value": "13.06 ± 2.28"}, {"measurement": "inhibition at 20 mg/kg", "setting": "[9]; [12]", "value": 64.9, "unit": "%"}, {"measurement": "inhibition at 25 mg/kg", "setting": "[9]; [12]", "value": 29, "unit": "%"}, {"measurement": "inhibition at 250 mg/kg", "setting": "[9]; Mus musculus, read-out: Inhibition rate (%)", "value": -10.6, "unit": "%"}, {"measurement": "% of ear Swelling", "setting": "[9]; Table 9, 0.020 g/kg, dosing day 0˜5", "value": "5.4 ± 2.6", "unit": "%"}, {"measurement": "% of ear Swelling", "setting": "[9]; Table 10, 0.025 g/kg, dosing day 0˜5", "value": "32.8 ± 7.9", "unit": "%"}, {"measurement": "% of ear Swelling", "setting": "[9]; [13]", "value": "24.10 ± 7.28", "unit": "%"}, {"measurement": "Inhibition rate (%)", "setting": "[9]; [13]", "value": 39.8, "unit": "%"}, {"measurement": "% of ear Swelling", "setting": "[9]; Table 11, 0.25 g/kg, dosing day −3", "value": "44.3 ± 7.9", "unit": "%"}, {"measurement": "NK Activity", "setting": "[10]", "value": "23.10 ± 3.66"}]}, {"smiles": "CN1CC[C@]23c4c5ccc(O)c4O[C@H]2[C@@H](O)C=C[C@H]3[C@H]1C5.Cl", "note": "[Morphine, Morphine hydrochloride]", "values": [{"measurement": "Torsion number", "setting": "[11]", "value": "0.0 ± 0.0"}]}]}
